Experiments:
Mus musculus [1] = species on record: Mus musculus; experiment: […] effect on UVB-induced murine epidermal barrier disruption to control water loss in mice in experiment 1; format: functional
Mus musculus [2] = species on record: Mus musculus; experiment: […] effect on UVB-induced murine epidermal barrier disruption to control water loss in mice in experiment 2; format: functional
[3] = molecular target: T1, Lysosomal acid glucosylceramidase (Homo sapiens) (UniProt P04062); experiment: In vitro beta--Glucocerebrosidase (beta-GlcCer'ase) activity in cultured human keratinocytes; format: cell-based; parameters: reference not given here
T1 sequence (whole entry): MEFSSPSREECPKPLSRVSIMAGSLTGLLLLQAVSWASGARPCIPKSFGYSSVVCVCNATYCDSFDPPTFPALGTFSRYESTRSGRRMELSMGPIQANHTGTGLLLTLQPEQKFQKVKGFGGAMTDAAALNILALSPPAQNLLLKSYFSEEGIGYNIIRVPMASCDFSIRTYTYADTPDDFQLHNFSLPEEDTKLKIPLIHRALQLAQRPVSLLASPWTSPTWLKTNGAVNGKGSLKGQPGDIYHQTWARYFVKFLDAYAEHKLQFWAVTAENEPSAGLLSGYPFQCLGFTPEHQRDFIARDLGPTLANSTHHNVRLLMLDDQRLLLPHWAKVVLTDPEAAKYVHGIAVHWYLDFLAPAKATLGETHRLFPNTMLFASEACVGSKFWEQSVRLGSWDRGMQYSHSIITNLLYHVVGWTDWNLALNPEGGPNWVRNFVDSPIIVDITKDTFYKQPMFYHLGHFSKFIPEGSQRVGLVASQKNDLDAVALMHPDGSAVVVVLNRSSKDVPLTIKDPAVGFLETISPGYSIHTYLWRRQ

SMILES: CCCCCCCCCCCCCCCCCC(=O)N[C@@H](CO[C@@H]1O[C@@H](CO)C(O)[C@H](O)[C@@H]1O)C(=O)NCCCCCC (single isomer, unassigned)
- TEWL (Mus musculus [1]): 2.01
- TEWL (Mus musculus [2]): 2.19
- Activity [3]: 1.42

SMILES: CCCCCCCCCCCCCCCC(=O)N[C@@H](CO[C@@H]1O[C@@H](CO)C(O)[C@H](O)[C@@H]1O)C(=O)NCCCCCCCCCCCCCC (single isomer, unassigned)
- Activity [3]: 1.37

SMILES: CCCCCCCCCCCCCCCCCC(=O)N[C@@H](CO[C@@H]1O[C@@H](CO)C(O)[C@H](O)[C@@H]1O)C(=O)NCCCCCCCCCC (single isomer, unassigned)
- Activity [3]: 1.2

SMILES: CCCCCCCCCCCCCCCCCC(=O)N[C@@H](CO[C@@H]1O[C@@H](CO)C(O)[C@H](O)[C@@H]1O)C(=O)NCCCCCCCCCCCCCC (single isomer, unassigned)
- Activity [3]: 1.24

SMILES: CCCCCCCCCCCCCCNC(=O)[C@H](CO[C@@H]1O[C@@H](CO)C(O)[C@H](O)[C@@H]1O)NC(=O)CCCCCCC (single isomer, unassigned)
- Activity [3]: 0.87
